Source: publication PMC4454744 (Analytical biochemistry, 2015)
Like-named read-outs stand apart in the source and are kept apart here.

Tests used:
[1] = target: T1, M. tuberculosis FabI (InhA) (Mycobacterium tuberculosis, UniProt P9WGR1)
[2] = target: T1, M. tuberculosis FabI (InhA); conditions: progress curve analysis; bound to InhA; 20 °C
[3] = target: T2, R40Q/K41N/S44L saFabI variant (Staphylococcus aureus, UniProt Q6GI75, K41N/R40Q/S44L); experiment: [32P]-NAD+ direct dissociation method, saFabI; format: binding; conditions: saFabI system
T2 sequence (Q6GI75 1-256 R40Q/K41N/S44L): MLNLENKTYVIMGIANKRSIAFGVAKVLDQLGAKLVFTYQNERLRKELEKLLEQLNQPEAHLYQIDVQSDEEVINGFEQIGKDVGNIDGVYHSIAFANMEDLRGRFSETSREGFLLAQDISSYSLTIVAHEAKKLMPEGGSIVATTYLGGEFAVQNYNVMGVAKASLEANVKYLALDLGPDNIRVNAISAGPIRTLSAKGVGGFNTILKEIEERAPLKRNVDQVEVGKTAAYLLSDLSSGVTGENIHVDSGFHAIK

saFabI = experiment: Progress curve analysis, saFabI; format: biochemical, Staphylococcus aureus; conditions: for residence time tR: progress curve analysis, saFabI system, 20 °C
[4] = tested on: hepatitis C virus NS3 protease; conditions: jump dilution; cited from earlier work

## CCCCCCc1ccc(Oc2ccccc2Cl)c(O)c1 [PT91]
[1]
  residence time tR: 148.4 ± 13.4 min
[2]
  residence time tR: 102.1 ± 11.4 min

## CCCCCCc1ccc(Oc2ccccc2)c(O)c1 [PT04]
[3]
  residence time tR: 461.5 min
saFabI
  residence time tR: 97 min

## CC(C)(C)OC(=O)N[C@H]1CCCCC/C=C\[C@@H]2C[C@@]2(C(=O)NS(=O)(=O)C2CC2)NC(=O)[C@@H]2C[C@@H](OC(=O)N3Cc4cccc(F)c4C3)CN2C1=O [ITMN-191]
[4]
  recovery of enzyme activity: partial recovery of enzyme activity

## CCCCCCc1ccc(Oc2ccccc2C#N)c(O)c1 [PT119]
[3]
  residence time tR: 833.3 min
saFabI; progress curve analysis vs direct dissociation method, inhibition of saFabI
  difference in koff: 8 fold
saFabI
  residence time tR: 120.3 min
